Patent US20240336608A1, “IL4I1 INHIBITORS AND METHODS OF USE” (Merck Sharp & Dohme LLC, priority 2023, published 2024)

Biological target: T1, recombinant IL4I1 (Homo sapiens, UniProt Q96RQ9)
T1 construct: purchased R&D Systems 5684-AO-020
T1 sequence (Q96RQ9 22-567): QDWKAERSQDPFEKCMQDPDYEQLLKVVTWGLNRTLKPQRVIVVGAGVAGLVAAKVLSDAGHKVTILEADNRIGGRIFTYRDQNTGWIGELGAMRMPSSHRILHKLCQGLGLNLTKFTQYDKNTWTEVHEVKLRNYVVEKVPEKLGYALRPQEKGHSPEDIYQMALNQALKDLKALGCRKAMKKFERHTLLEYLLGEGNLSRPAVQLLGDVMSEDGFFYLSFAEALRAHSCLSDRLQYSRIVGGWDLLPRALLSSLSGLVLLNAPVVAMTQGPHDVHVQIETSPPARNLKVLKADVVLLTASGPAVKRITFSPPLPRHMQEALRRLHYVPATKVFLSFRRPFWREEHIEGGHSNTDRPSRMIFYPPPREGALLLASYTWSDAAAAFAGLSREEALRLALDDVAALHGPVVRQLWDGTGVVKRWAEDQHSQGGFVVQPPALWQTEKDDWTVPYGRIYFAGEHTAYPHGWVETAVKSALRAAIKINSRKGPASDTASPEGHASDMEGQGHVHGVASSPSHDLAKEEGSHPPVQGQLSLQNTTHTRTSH
Experiment: IL4I1 Enzymatic Assay (Amplex Red/HRP coupled detection of H2O2, fluorescence)
Format: biochemical
Settings: 1 nM recombinant IL4I1; four-hour pre-incubation with compound; 1 mM each Phe, Tyr, Trp; ten-point titration
Summary of the method: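 H2O2 output was coupled to resorufin fluorescence (ex 544/em 590) via 0.05 mM Amplex Red and 1 U/mL HRP. Substrate: Phe, Tyr, Trp at 1 mM each; enzyme 1 nM, 4 h compound pre-incubation, 120 min reaction, pH 7.0 Hepes. EC50 by nonlinear four-parameter regression, 1:3 ten-point titration.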

Compound | EC50 [nM]
Cc1nc(S(C)(=O)=O)ccc1-n1cc(C(=O)NCc2nnc(-c3ccccc3)s2)nn1 [Example 341, 1-(2-methyl-6-(methylsulfonyl)pyridin-3-yl)-N-((5-phenyl-1,3,4-thiadiazol-2-yl)methyl)-1H-1,2,3-triazole-4-carboxamide] | 271
CC(C(N)=O)n1cc(C(=O)NCc2nnc(-c3ccccc3)s2)nn1 (single isomer, unassigned) [Example 318, 1-(1-amino-1-oxopropan-2-yl)-N-((5-phenyl-1,3,4-thiadiazol-2-yl)methyl)-1H-1,2,3-triazole-4-carboxamide] | 209
Cc1ccc(-n2cc(C(=O)NCc3nnc(-c4ccc(F)cc4)s3)nn2)c(C)n1 [Example 227, 1-(2,6-dimethylpyridin-3-yl)-N-{[5-(4-fluorophenyl)-1,3,4-thiadiazol-2-yl]methyl}-1H-1,2,3-triazole-4-carboxamide] | 69
Cc1cc(C(=O)NCc2nnc(-c3ccccc3)s2)oc1C [Example 38, 4,5-dimethyl-N-[(5-phenyl-1,3,4-thiadiazol-2-yl)methyl]furan-2-carboxamide] | 890
CC(C#N)n1cc(C(=O)NCc2nnc(-c3ccccc3)s2)nn1 (stereo not shown) [Example 73, 1-(1-cyanoethyl)-N-((5-phenyl-1,3,4-thiadiazol-2-yl)methyl)-1H-1,2,3-triazole-4-carboxamide] | 9
Cc1c(C(=O)NCc2nnc(-c3ccccc3)s2)oc2ccccc12 [Example 53, 3-methyl-N-[(5-phenyl-1,3,4-thiadiazol-2-yl)methyl]benzofuran-2-carboxamide] | 357
O=C(NCc1nnc(-c2ccncc2)s1)c1cn(CC(F)(F)F)nn1 [Example 249, N-((5-(pyridin-4-yl)-1,3,4-thiadiazol-2-yl)methyl)-1-(2,2,2-trifluoroethyl)-1H-1,2,3-triazole-4-carboxamide] | 15
O=C(NCc1nnc(-c2ccccc2)s1)c1cc(C2CC2)on1 [Example 35, 5-cyclopropyl-N-[(5-phenyl-1,3,4-thiadiazol-2-yl)methyl]isoxazole-3-carboxamide] | 8
O=C(NCc1nnc(-c2ccccc2)s1)c1cc2c(o1)CCNC2=O [Example 56, 4-oxo-N-[(5-phenyl-1,3,4-thiadiazol-2-yl)methyl]-6,7-dihydro-5H-furo[3,2-c]pyridine-2-carboxamide] | 234
O=C(NCc1nnc(-c2ccccc2)s1)c1cn(CC(F)(F)F)nn1 [Example 60, N-((5-phenyl-1,3,4-thiadiazol-2-yl)methyl)-1-(2,2,2-trifluoroethyl)-1H-1,2,3-triazole-4-carboxamide] | 4
O=C(NCc1nnc(-c2ccccc2)s1)c1cn(CC2CCCO2)nn1 (stereo not shown) [Example 79, N-((5-phenyl-1,3,4-thiadiazol-2-yl)methyl)-1-((tetrahydrofuran-2-yl)methyl)-1H-1,2,3-triazole-4-carboxamide] | 110
CNC(=O)C(C)(C)n1cc(C(=O)NCc2nnc(-c3ccncc3)s2)nn1 [Example 321, 1-(2-methyl-1-(methylamino)-1-oxopropan-2-yl)-N-((5-(pyridin-4-yl)-1,3,4-thiadiazol-2-yl)methyl)-1H-1,2,3-triazole-4-carboxamide] | 51
CC(=O)N1CC(n2cc(C(=O)NCc3nnc(-c4ccccc4)s3)nn2)C1 [Example 102, 1-(1-acetylazetidin-3-yl)-N-((5-phenyl-1,3,4-thiadiazol-2-yl)methyl)-1H-1,2,3-triazole-4-carboxamide] | 296
CCn1ccc(C(=O)NCc2nnc(-c3ccccc3)s2)c1 [Example 18, 1-ethyl-N-[(5-phenyl-1,3,4-thiadiazol-2-yl)methyl]pyrrole-3-carboxamide] | 40
CC1CC1n1cc(C(=O)NCc2nnc(-c3ccccc3)s2)nn1 (single isomer, unassigned) [Example 132, Cis-1-(2-methylcyclopropyl)-N-((5-phenyl-1,3,4-thiadiazol-2-yl)methyl)-1H-1,2,3-triazole-4-carboxamide] | 7
Cc1ccc(-n2cc(C(=O)NC(C)c3nnc(-c4ccccc4)s3)nn2)c(C)n1 (single isomer, unassigned) [Example 262, 1-(2,6-dimethylpyridin-3-yl)-N-(1-(5-phenyl-1,3,4-thiadiazol-2-yl)ethyl)-1H-1,2,3-triazole-4-carboxamide] | 85
O=C(NCc1nnc(-c2ccccc2)s1)c1cn(C2CS(=O)(=O)C2)nn1 [Example 307, 1-(1,1-dioxidothietan-3-yl)-N-((5-phenyl-1,3,4-thiadiazol-2-yl)methyl)-1H-1,2,3-triazole-4-carboxamide] | 73

Compound | EC50 [nM]
Cc1ccc(-c2cc(C(=O)NCc3nnc(-c4ccccc4)s3)no2)c(C)n1 [Example 228, 5-(2,6-dimethylpyridin-3-yl)-N-[(5-phenyl-1,3,4-thiadiazol-2-yl)methyl]-1,2-oxazole-3-carboxamide] | 51
Cn1cc(-n2cc(C(=O)NCc3nnc(-c4ccccc4)s3)nn2)cn1 [Example 288, 1-(1-methyl-1H-pyrazol-4-yl)-N-((5-phenyl-1,3,4-thiadiazol-2-yl)methyl)-1H-1,2,3-triazole-4-carboxamide] | 39
CC(C)(O)c1cc(C(=O)NCc2nnc(-c3ccccc3)s2)no1 [Example 317, 5-(2-hydroxypropan-2-yl)-N-((5-phenyl-1,3,4-thiadiazol-2-yl)methyl)isoxazole-3-carboxamide] | 21
Cn1cc(C(=O)NCc2cc(-c3ccccc3Cl)on2)nn1 [Example 225, N-{[5-(2-chlorophenyl)-1,2-oxazol-3-yl]methyl}-1-methyl-1H-1,2,3-triazole-4-carboxamide] | 856
O=C(NCc1nnc(-c2ccccc2)s1)c1cn(CC2(CO)CC2)nn1 [Example 343, 1-((1-(hydroxymethyl)cyclopropyl)methyl)-N-((5-phenyl-1,3,4-thiadiazol-2-yl)methyl)-1H-1,2,3-triazole-4-carboxamide] | 92
Cn1cc(C(=O)NCc2cc(-c3ccccc3Cl)no2)nn1 [Example 224, N-{[3-(2-chlorophenyl)-1,2-oxazol-5-yl]methyl}-1-methyl-1H-1,2,3-triazole-4-carboxamide] | 832
CC(CC(F)(F)F)n1cc(C(=O)NCc2nnc(-c3ccccc3)s2)nn1 (single isomer, unassigned) [Example 63, N-((5-phenyl-1,3,4-thiadiazol-2-yl)methyl)-1-(4,4,4-trifluorobutan-2-yl)-1H-1,2,3-triazole-4-carboxamide] | 18
O=C(NCc1nnc(-c2ccccc2)s1)c1csc(Cc2ccccc2)n1 [Example 16, 2-benzyl-N-((5-phenyl-1,3,4-thiadiazol-2-yl)methyl)thiazole-4-carboxamide] | 84
CNC(=O)C1(n2cc(C(=O)NCc3nnc(-c4ccccc4)s3)nn2)CC1 [Example 162, 1-(1-(methylcarbamoyl)cyclopropyl)-N-((5-phenyl-1,3,4-thiadiazol-2-yl)methyl)-1H-1,2,3-triazole-4-carboxamide] | 120
Cc1ccc(-n2cc(C(=O)NCc3ccc(-c4cccs4)nn3)nn2)c(C)n1 [Example 121, 1-(2,6-dimethylpyridin-3-yl)-N-((6-(thiophen-2-yl)pyridazin-3-yl)methyl)-1H-1,2,3-triazole-4-carboxamide] | 24
Cc1nc(C(C)(C)O)ccc1-n1cc(C(=O)NCc2nnc(-c3ccccc3)s2)nn1 [Example 334, 1-(6-(2-hydroxypropan-2-yl)-2-methylpyridin-3-yl)-N-((5-phenyl-1,3,4-thiadiazol-2-yl)methyl)-1H-1,2,3-triazole-4-carboxamide] | 446
CC(C)(C#N)n1cc(C(=O)NCc2nnc(-c3ccccc3)s2)nn1 [Example 313, 1-(2-cyanopropan-2-yl)-N-((5-phenyl-1,3,4-thiadiazol-2-yl)methyl)-1H-1,2,3-triazole-4-carboxamide] | 26
COc1ccsc1C(=O)NCc1nnc(-c2ccccc2)s1 [Example 29, 3-methoxy-N-[(5-phenyl-1,3,4-thiadiazol-2-yl)methyl]thiophene-2-carboxamide] | 10
Cc1ccc(-n2cc(C(=O)NCc3ccc(-c4sccc4C)nn3)nn2)c(C)n1 [Example 122, 1-(2,6-dimethylpyridin-3-yl)-N-((6-(3-methylthiophen-2-yl)pyridazin-3-yl)methyl)-1H-1,2,3-triazole-4-carboxamide] | 571
Cc1ccc(-n2cc(C(=O)NCc3nnc(C4CCCC4)s3)nn2)c(C)n1 [Example 325, N-((5-cyclopentyl-1,3,4-thiadiazol-2-yl)methyl)-1-(2,6-dimethylpyridin-3-yl)-1H-1,2,3-triazole-4-carboxamide] | 274
O=C(NCc1cc(-c2ccncc2)on1)c1cn(C2CC2)nn1 [Example 246, 1-cyclopropyl-N-((5-(pyridin-4-yl)isoxazol-3-yl)methyl)-1H-1,2,3-triazole-4-carboxamide] | 104
Cc1cc(C(=O)NCc2nnc(-c3ccccc3)s2)c(C)o1 [Example 36, 2,5-dimethyl-N-[(5-phenyl-1,3,4-thiadiazol-2-yl)methyl]furan-3-carboxamide] | 487
